Consider 28 compounds from patent US6964975B2, “Isoxazole and thiazole compounds and use thereof as medicine” (Kirin Beer Kabushiki Kaisha, priority 2000, dated 2005).

For one experiment, the target named is T1, human EDG-2 (Homo sapiens, UniProt Q92633).
T1 construct: cDNA of the cloned human EDG-2 was introduced into pEFneo, which is an animal expression vector; expressed in transfected cells; host or cells: HepG2
Put plainly: Inhibitory activity on LPA-induced elevation of intracellular Ca2+ level. In kind it is cell-based. Conditions: 50% inhibition of elevation of intracellular Ca2+ level by LPA, human EDG-2/HepG2 cells, fura-2. The procedure, abridged:
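Stably transfected HepG2 cells loaded with fura-2/AM (45 min, room temperature) in 0.1% BSA HEPES buffer. Test compound added before LPA, and the LPA-evoked intracellular Ca2+ rise measured fluorometrically. IC50 for inhibition derived.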

The next experiment deals with Human EDG-2/HepG2 cells. Put plainly: Inhibitory activity on LPA-accelerated [3H] thymidine incorporation (cell proliferation). In kind it is cell-based. Conditions: 50% inhibition of LPA-induced increase of [3H] thymidine incorporation. The text has this:
The human EDG-2 expression plasmid was introduced into HepG2 cells by electroporation. After the introduction, culturing was continued while exchanging selective media every 3 to 4 days, thereby obtaining an expressed colony. Regarding these cells, Ca-influx and cell-proliferation by LPA, level of [^3H] LPA binding and the like were inspected to select a cell line which highly expresses human EDG-2 (human EDG-2/HepG2).
Human EDG-2/HepG2 cells suspended in 10% bovine serum-containing DMEM (Dulbecco's modified eagle medium) were plated on a 96-well plate and, on the next day, the medium was exchanged with serum-free DMEM. 24 hours later, the medium was exchanged with DMEM containing LPA or DMEM containing no LPA, cells were cultured for further 16 hours, and [^3H] thymidine was then added. After culturing for 8 hours subsequent to the addition of [^3H] thymidine, cells were washed with PBS (phosphate-buffered saline), and the amount of [^3H] thymidine incorporated into the cells were assayed by Betaplate filter counter system (Amersham Pharmacia Biotech). The difference between the amount of [^3H] thymidine incorporated in the LPA-added well and the amount of [^3H] thymidine incorporated in the well containing no LPA represents the amount of [^3H] thymidine incorporation accelerated by LPA. […] The test compounds were added immediately before the LPA addition.

T1 sequence (Q92633 whole entry): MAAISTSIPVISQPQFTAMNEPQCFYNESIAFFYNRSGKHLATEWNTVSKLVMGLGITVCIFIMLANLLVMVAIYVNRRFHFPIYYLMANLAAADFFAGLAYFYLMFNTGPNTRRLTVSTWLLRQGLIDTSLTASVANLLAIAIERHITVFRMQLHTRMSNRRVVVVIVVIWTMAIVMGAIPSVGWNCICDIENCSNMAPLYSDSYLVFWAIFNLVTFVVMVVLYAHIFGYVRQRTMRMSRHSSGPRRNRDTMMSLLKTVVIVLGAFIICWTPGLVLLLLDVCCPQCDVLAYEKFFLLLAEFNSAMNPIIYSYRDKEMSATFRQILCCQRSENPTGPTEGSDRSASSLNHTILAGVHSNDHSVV

Usually IC50 stands for the concentration needed to halve the response being measured. Low values mean inhibition by little substance, high ones a need for much substance. In the case of `Cc1noc(-c2ccc(CSCC(=O)NCc3ccco3)cc2)c1NC(=O)OC(C)c1ccccc1Cl` (centres unmarked) [Compound 139, 1-(2-Chlorophenyl)ethyl N-(5-{4-[({2-[(2-furylmethyl)amino]-2-oxoethyl}sulfanyl)-methyl]phenyl)-3-methyl-4-isoxazolyl)carbamate], the IC50 on human EDG-2 was 10000 nM; in the experiment on Human EDG-2/HepG2 cells, 30 to 100 nM.
For `C=CCSCc1cccc(-c2onc(C)c2NC(=O)OC(C)c2ccccc2Cl)c1` (centres unmarked) [Compound 141, 1-(2-Chlorophenyl)ethyl N-(5-{3-[(allylsulfanyl)methyl]phenyl}-3-methyl-4-isoxazolyl)-carbamate] the same measures were 3000 to 10000 nM and 300 to 1000 nM.
Regarding `Cc1noc(-c2cccc(CSCCS(=O)(=O)O)c2)c1NC(=O)OC(C)c1ccccc1Cl` (centres unmarked) [Compound 158, 2-({3-[4-({[1-(2-Chlorophenyl)ethoxy]carbonyl}amino)-3-methyl-5-isoxazolyl]benzyl}-sulfanyl)-1-ethanesulfonic acid], the IC50 against human EDG-2 was 3000 to 10000 nM; in the experiment on Human EDG-2/HepG2 cells, 1000 nM.
Taken in the same sequence, the figures for `CCCSCc1ccc(-c2onc(C)c2NC(=O)OC(C)c2ccccc2Cl)cc1` (centres unmarked) [Compound 117, 1-(2-Chlorophenyl)ethyl N-(3-methyl-5-{4-[(propylsulfanyl)methyl]phenyl}-4-isoxazolyl)-carbamate] were 3000 to 10000 nM and 30 to 100 nM.
Taken in the same sequence, the figures for `Cc1noc(-c2ccc(CNCCc3ccccn3)cc2)c1NC(=O)OC(C)c1ccccc1Cl` (centres unmarked) [Compound 103] were 10000 nM and 300 nM.
For `CCc1noc(-c2ccc(CSCCC(=O)O)cc2)c1NC(=O)OC(C)c1ccccc1Cl` (centres unmarked) [Compound 147, 3-({4-[4-({[1-(2-Chlorophenyl)ethoxy]carbonyl}amino)-3-ethyl-5-isoxazolyl]benzyl}-sulfanyl)propanoic acid] the same measures were 3000 to 10000 nM and 30 to 100 nM.
As for `Cc1noc(-c2cccc(CSCCc3ccccc3)c2)c1NC(=O)OC(C)c1ccccc1Cl` (centres unmarked) [Compound 142, 1-(2-Chlorophenyl)ethyl N-(3-methyl-5-{3-[(phenethylsulfanyl)methyl]phenyl}-4-isoxazolyl)-carbamate], the IC50 against human EDG-2 was 3000 to 10000 nM; with Human EDG-2/HepG2 cells, 300 nM.
Taken in the same sequence, the figures for `Cc1noc(-c2ccc(CSCCCS(=O)(=O)O)cc2)c1NC(=O)OC(C)c1ccccc1Cl` (centres unmarked) [Compound 152, 3-({4-[4-({[1-(2-Chlorophenyl)ethoxy]carbonyl}amino)-3-methyl-5-isoxazolyl]benzyl}-sulfanyl)-1-propanesulfonic acid] were 3000 to 10000 nM and 300 nM.
For `Cc1noc(-c2ccc(CSCc3ccco3)cc2)c1NC(=O)OC(C)c1ccccc1Cl` (centres unmarked) [Compound 107, 1-(2-Chlorophenyl)ethyl N-[5-(4-{[(2-furylmethyl)sulfanyl]methyl}phenyl)-3-methyl-4-isoxazolyl]carbamate] the same measures were 3000 to 10000 nM and 30 to 100 nM.
Taken in the same sequence, the figures for `Cc1cnc(CNCc2ccc(-c3onc(C)c3NC(=O)OC(C)c3ccccc3Cl)cc2)cn1` (centres unmarked) [Compound 114, 1-(2-Chlorophenyl)ethyl N-{3-methyl-5-[4-({[(5-methyl-2-pyrazyl)methyl]amino}-methyl)phenyl]-4-isoxazoly}carbamate] were 10000 to 30000 nM and 300 to 1000 nM.
For the compound `CCc1noc(-c2ccc(CCl)cc2)c1NC(=O)OC(c1ccccc1)C(F)(F)F` (centres unmarked) [Compound 164, 2,2,2-Trifluoro-1-phenylethyl N-{5-[4-(chloromethyl)phenyl]-3-ethyl-4-isoxazolyl}carbamate], the values for the IC50 at human EDG-2 and in the experiment with Human EDG-2/HepG2 cells were 3000 to 10000 nM and 300 to 1000 nM, respectively.
For `COC(=O)CCSCc1ccc(-c2onc(C)c2NC(=O)OC(C)c2ccccc2F)cc1` (centres unmarked) [Compound 156, Methyl 3-({4-[4-({[1-(2-fluorophenyl)ethoxy]carbonyl}amino)-3-methyl-5-isoxazolyl]-benzyl}-sulfanyl)propanoate] the same measures were 10000 nM and 300 to 1000 nM.
For `CCc1noc(-c2ccc(CSCCC(=O)O)cc2)c1NC(=O)OC(C)c1ccccc1F` (centres unmarked) [Compound 167, 3-({4-[3-Ethyl-4-({[1-(2-fluorophenyl)ethoxy]carbonyl}amino)-5-isoxazolyl]benzyl}-sulfanyl)propanoic acid] the same measures were 3000 to 10000 nM and 30 to 100 nM.
Taken in the same sequence, the figures for `Cc1onc(-c2ccccc2F)c1NC(=O)OC(C)c1ccccc1Cl` (centres unmarked) [Compound 20, 1-(2-Chlorophenyl)ethyl N-[3-(2-fluorophenyl)-5-methyl-4-isoxazolyl]carbamate] were 3000 nM and 1000 nM.
Take `Cc1noc(-c2ccc(CSCC(O)CO)cc2)c1NC(=O)OC(C)c1ccccc1Cl` (centres unmarked) [Compound 135]: the IC50 against human EDG-2 fell in the range of 3000 to 10000 nM; with Human EDG-2/HepG2 cells, 100 to 300 nM.
As to `CCOC(=O)COCc1ccc(-c2onc(C)c2NC(=O)OC(c2ccccc2)C(F)(F)F)cc1` (centres unmarked) [Compound 169, Ethyl 2-{[4-(3-methyl-4-{[(2,2,2-trifluoro-1-phenylethoxy)carbonyl]amino}-5-isoxazolyl)-benzyl]oxy}acetate], the figures for the IC50 against human EDG-2 and with Human EDG-2/HepG2 cells were 3000 to 10000 nM and 1000 to 3000 nM, respectively.
For the compound `COC(=O)C[S+]([O-])Cc1ccc(-c2onc(C)c2NC(=O)OC(C)c2ccccc2Cl)cc1` (centres unmarked) [Compound 134, Methyl 2-({4-[4-({[1-(2-chlorophenyl)ethoxy]carbonyl}amino)-3-methyl-5-isoxazolyl]-benzyl}sulfinyl)acetate], the IC50 is 3000 to 10000 nM against human EDG-2 and 100 to 300 nM in the experiment on Human EDG-2/HepG2 cells.
For `Cc1onc(-c2ccccc2)c1NC(=O)OC(C)c1ccccc1Cl` (centres unmarked) [Compound 4, 1-(2-Chlorophenyl)ethyl N-(5-methyl-3-phenyl-4-isoxazolyl)carbamate] the same measures were 3000 nM and 1000 nM.
For `Cc1noc(-c2ccc(CSC(C)C(=O)O)cc2)c1NC(=O)OC(C)c1ccccc1Cl` (centres unmarked) [Compound 148, 2-({4-[4-({[1-(2-Chlorophenyl)ethoxy]carbonyl}amino)-3-methyl-5-isoxazolyl]benzyl}-sulfanyl)propanoic acid] the same measures were 10000 to 30000 nM and 100 to 300 nM.
`Cc1noc(-c2ccc(CSc3nc[nH]n3)cc2)c1NC(=O)OC(C)c1ccccc1Cl` (centres unmarked) [Compound 136, 1-(2-Chlorophenyl)ethyl N-(3-methyl-5-{4-[(1H-1,2,4-triazol-3-ylsulfanyl)methyl]-phenyl}-4-isoxazolyl)carbamate]: the IC50 on human EDG-2 fell in the range of 3000 to 10000 nM; with Human EDG-2/HepG2 cells, 100 to 300 nM.
For `Cc1noc(-c2ccc(CNCCc3cccnc3)cc2)c1NC(=O)OC(C)c1ccccc1Cl` (centres unmarked) [Compound 110, 1-(2-Chlorophenyl)ethyl N-{3-methyl-5-[4-({[2-(3-pyridyl)ethyl]amino}methyl)-phenyl]-4-isoxazolyl}carbamate] the same measures were 10000 to 30000 nM and 300 to 1000 nM.
For `Cc1noc(-c2ccc(C#N)cc2)c1NC(=O)OC(C)c1ccccc1Cl` (centres unmarked) [Compound 47, 1-(2-Chlorophenyl)ethyl N-[5-(4-cyanophenyl)-3-methyl-4-isoxazolyl]carbamate] the same measures were 1000 nM and 300 nM.
Turning to `CCSCc1cccc(-c2onc(C)c2NC(=O)OC(C)c2ccccc2Cl)c1` (centres unmarked) [Compound 132, 1-(2-Chlorophenyl)ethyl N-(5-{3-[(ethylsulfanyl)methyl]phenyl}-3-methyl-4-isoxazolyl)carbamate], the IC50 at human EDG-2 was 3000 nM; in the experiment with Human EDG-2/HepG2 cells, 300 to 1000 nM.
For the compound `CCc1noc(-c2ccc(CSCCC(=O)OC)cc2)c1NC(=O)OC(c1ccccc1)C(F)(F)F` (centres unmarked) [Compound 166, Methyl 3-{[4-(3-ethyl-4-{[(2,2,2-trifluoro-1-phenylethoxy)carbonyl]amino}-5-isoxazolyl)-benzyl]sulfanyl}propanoate], the IC50 against human EDG-2 turned out to be 10000 nM; in the experiment on Human EDG-2/HepG2 cells, 100 nM.
Taken in the same sequence, the figures for `C=CCSCc1ccc(-c2onc(C)c2NC(=O)OC(C)c2ccccc2Cl)cc1` (centres unmarked) [Compound 123, 1-(2-Chlorophenyl)ethyl N-(5-{4-[(allylsulfanyl)methyl]phenyl}-3-methyl-4-isoxazolyl)-carbamate] were 3000 to 10000 nM and 100 to 300 nM.
In the case of `CCc1noc(-c2ccc(CSCCC(=O)OC)cc2)c1NC(=O)OC(C)c1ccccc1Cl` (centres unmarked) [Compound 146], the concentration for half-maximal inhibition (IC50) against human EDG-2 was 3000 to 10000 nM; in the experiment with Human EDG-2/HepG2 cells, 30 to 300 nM.
Taken in the same sequence, the figures for `CCc1noc(-c2ccc(CSCC(=O)O)cc2)c1NC(=O)OC(C)c1ccccc1Cl` (centres unmarked) [Compound 154, 2-({4-[4-({[1-(2-Chlorophenyl)ethoxy]carbonyl}amino)-3-ethyl-5-isoxazolyl]benzyl}-sulfanyl)acetic acid] were 3000 to 10000 nM and 100 to 300 nM.
Taken in the same sequence, the figures for `Cc1noc(-c2ccc(CSCCO)cc2)c1NC(=O)OC(C)c1ccccc1Cl` (centres unmarked) [Compound 120, 1-(2-Chlorophenyl)ethyl N-[5-(4-{[(2-hydroxyethyl)sulfanyl]methyl}phenyl)-3-methyl-4-isoxazolyl]carbamate] were 3000 to 10000 nM and 100 to 300 nM.
